Molecules are shown by their SMILES.

The subject of assay [1] is cell cycle subnetwork in NHBE cells. The assay is described as follows: Network perturbation amplitude (NPA) score on the cell cycle subnetwork, from gene transcription profiles of NHBE cells. The settings on record: from 2-hour to 8-hour time point after removal of CDKI, versus cells continuously exposed to CDKI; subnetwork of 127 nodes and 240 edges. The class given is cell-based, human. Here is the method:
(§1) The systems and methods described herein have been tested using a well-understood cell culture experiment. […] The treated cells were then allowed to re-enter the cell cycle by removal of the CDKI from the media and washing. Re-entry of the cell cycle was experimentally confirmed by labeling the cells fluorescently in S-phase at 2, 4, 6 and 8 hours after the CDKI was removed and the cells were washed. The gene transcription profiles of cells that were sampled 2, 4, 6, and 8 hours after the removal of the CDKI, were obtained. Profiles of cells that were continuously exposed to CDKI in media were also obtained. To identify biological processes and mechanisms that were differentially activated when CDKI was removed, network perturbation amplitude scores were calculated using gene transcription profiles of the washed cells obtained at various time point. For the computation of a NPA score for the perturbation associated with the removal of CDKI, a cell cycle subnetwork that comprises 127 nodes and 240 edges, was used. It is a subnetwork of the cell proliferation network model published in […] et al. (2011, “A computable cellular stress network model for non-diseased pulmonary and cardiovascular tissue” BMC Syst Biol. Oct 19; 5:168, which is incorporated herein by reference in its entirety). […]

Assay [2] has as its system Normal human bronchial epithelial (NHBE) cells. The assay is described as follows: Cell cycle arrest and S-phase re-entry in NHBE cell culture (fluorescent S-phase labeling / FACS). The class given is cell-based. How it is done: as §1

On to `CC(=O)c1c(C)c2cnc(Nc3ccc(N4CCNCC4)cn3)nc2n(C2CCCC2)c1=O` [PD-0332991], for which the “NPA scores (FIG. 18)” value in assay [1] is “increase”. The “number of cells in S-phase (FACS analysis, FIG. 17)” value in assay [2] (2, 4, 6 and 8 hours after the CDKI was removed and the cells were washed) is listed as “increase”. For the same molecule, in assay [2] (NHBE cells exposed to the CDKI in media), the “effect on cell cycle” value is “arrests the cells in G1”.

Values taken from patent US20140214336A1, “SYSTEMS AND METHODS FOR NETWORK-BASED BIOLOGICAL ACTIVITY ASSESSMENT” (PHILIP MORRIS PRODUCTS S.A., priority 2011, published 2014).
